Patent publication US20080306056A1, “PYRAZOLE-DERIVATIVES AS FACTOR Xa INHIBITORS” (SANOFI-AVENTIS DEUTSCHLAND GMBH, priority 2002, published 2008)
pKi: −log10 of the molar value.

Target: T1, human factor Xa (Homo sapiens, UniProt P00742)
T1 construct: 25 μl human factor Xa (Enzyme Research Laboratories, Inc; South Bend, Ind.); purchased Enzyme Research Laboratories, Inc; South Bend, Ind
Test: Factor Xa assay (chromogenic, purified enzyme)
Type: biochemical
Settings: inhibition constant for factor Xa; chromogenic substrate S-2765 140 μM, enzyme 0.5 nM, 25° C., pH 7.8; Ki=IC50/{1+(substrate concentration/Km)}; read-out: Ki(FXa)
From the text: The ability of the compound of formulae I, Ib and Ic to inhibit factor Xa or factor VIIa or other enzymes like thrombin, plasmin, or trypsin can be assessed by determining the concentration of the compound of the formulae I, Ib and Ic that inhibits enzyme activity by 50%, i.e. the IC50 value, which was related to the inhibition constant Ki. Purified enzymes were used in chromogenic assays. The concentration of inhibitor that causes a 50% decrease in the rate of substrate hydrolysis was determined by linear regression after plotting the relative rates of hydrolysis (compared to the uninhibited control) versus the log of the concentration of the compound of formulae I, Ib and Ic. For calculating the inhibition constant Ki, the IC50 value was corrected for competition with substrate using the formula wherein Km is the Michaelis-Menten constant (Chen and Prusoff, Biochem.
Ki=IC50/{1+(substrate concentration/Km)}
Pharmacol. 22 (1973) 3099-3108; I. H. Segal, Enzyme Kinetics, 1975, John Wiley & Sons, New York, 100-125; which were incorporated herein by reference).
The IC50 was determined by combining in appropriate wells of a Costar half-area microtiter plate 25 μl human factor Xa (Enzyme Research Laboratories, Inc.; South Bend, Ind.) in TBS-PEG; 40 μl 10% (v/v) DMSO in TBS-PEG (uninhibited control) or various concentrations of the compound to be tested diluted in 10% (v/v) DMSO in TBS-PEG; and substrate S-2765 (N(α)-benzyloxycarbonyl-D-Arg-Gly-L-Arg-p-nitroanilide; Kabi Pharmacia, Inc.; Franklin, Ohio) in TBS-PEG.
The assay was performed by pre-incubating the compound of formulae I, Ib and Ic plus enzyme for 10 min. Then the assay was initiated by adding substrate to obtain a final volume of 100 μl. The initial velocity of chromogenic substrate hydrolysis was measured by the change in absorbance at 405 nm using a Bio-tek Instruments kinetic plate reader (Ceres UV900HDi) at 25° C. during the linear portion of the time course (usually 1.5 min after addition of substrate). The enzyme concentration was 0.5 nM and substrate concentration was 140 μM.
The inhibitory activity towards factor VIIa/tissue factor activity was determined using a chromogenic assay essentially as described previously (J. A. Ostrem et al., Biochemistry 37 (1998) 1053-1059 which was incorporated herein by reference). Kinetic assays were conducted at 25° C. in half-area microtiter plates (Costar Corp., Cambridge, Mass.) using a kinetic plate reader (Molecular Devices Spectramax 250). A typical assay consisted of 25 μl human factor VIIa and TF (5 nM and 10 nM, respective final concentration) combined with 40 μl of inhibitor dilutions in 10% DMSO/TBS-PEG buffer (50 mM Tris, 15 mM NaCl, 5 mM CaCl2, 0.05% PEG 8000, pH 8.15). Following a 15 minute preincubation period, the assay was initiated by the addition of 35 μl of the chromogenic substrate S-2288 (D-Ile-Pro-Arg-p-nitroanilide, Pharmacia Hepar Inc., 500 μM final concentration).

T1 sequence (P00742 235-488 limits assumed): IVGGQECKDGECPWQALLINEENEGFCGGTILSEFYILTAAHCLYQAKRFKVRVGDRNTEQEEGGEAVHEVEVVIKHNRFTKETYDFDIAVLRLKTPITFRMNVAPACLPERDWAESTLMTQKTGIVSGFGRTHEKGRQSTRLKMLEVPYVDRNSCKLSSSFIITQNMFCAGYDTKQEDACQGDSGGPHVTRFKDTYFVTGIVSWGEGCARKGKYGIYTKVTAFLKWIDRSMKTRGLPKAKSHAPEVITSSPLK
T1 sequence (P00742 41-179 partner limits assumed): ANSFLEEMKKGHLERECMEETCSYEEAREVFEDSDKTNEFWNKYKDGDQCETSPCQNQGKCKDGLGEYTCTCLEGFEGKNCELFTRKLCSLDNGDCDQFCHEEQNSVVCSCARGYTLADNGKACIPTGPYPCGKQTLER

Structure (SMILES) | pKi
CC(C)N1CCC(NC(=O)c2cc(C(=O)OCC(=O)O)nn2Cc2cc(-c3ccc(Cl)s3)on2)CC1 [Example 111, 1-[5-(5-Chloro-thiophen-2-yl)-isoxazol-3-ylmethyl]-5-(1-isopropyl-piperidin-4-ylcarbamoyl)-1H-pyrazole-3-carboxylic acid carboxymethyl ester] | 7.31
CC(C)N1CCC(NC(=O)c2cc(C(=O)N3CCC(O)CC3)nn2Cc2cc(-c3ccc(Cl)s3)on2)CC1 [Example 35, 2-[5-(5-Chloro-thiophen-2-yl)-isoxazol-3-ylmethyl]-5-(4-hydroxy-piperidine-1-carbonyl)-2H-pyrazole-3-carboxylic acid (1-isopropyl-piperidin-4-yl)-amide] | 6.79
CC(C)N1CCC(NC(=O)c2cc(C(=O)NC(CO)(CO)CO)nn2Cc2cc(-c3ccc(Cl)s3)on2)CC1 [Example 89, 1-[5-(5-Chloro-thiophen-2-yl)-isoxazol-3-ylmethyl]-1H-pyrazole-3,5-dicarboxylic acid 3-[(2-hydroxy-1,1-bis-hydroxymethyl-ethyl)-amide] 5-[(1-isopropyl-piperidin-4-yl)-amide]] | 6.72
CC(C)N1CCC(NC(=O)c2c(C#N)cnn2Cc2cc(-c3ccc(Cl)s3)on2)CC1 [Example 55, 2-[5-(5-Chloro-thiophen-2-yl)-isoxazol-3-ylmethyl]-4-cyano-2H-pyrazole-3-carboxylic acid (1-isopropyl-piperidin-4-yl)-amide] | 7.00
CC(C)N1CCC(NC(=O)c2cc(C(=O)N(C)CC(=O)O)nn2Cc2cc(-c3ccc(Cl)s3)on2)CC1 [Example 33, {[1-[5-(5-Chloro-thiophen-2-yl)-isoxazol-3-ylmethyl]-5-(1-isopropyl-piperidin-4-ylcarbamoyl)-1H-pyrazole-3-carbonyl]-methyl-amino}-acetic acid] | 7.09
CC(C)N1CCC(NC(=O)c2cc(C(=O)N3CCC4(CCCC4)CC3)nn2Cc2cc(-c3ccc(Cl)s3)on2)CC1 [Example 38, 5-(8-Aza-spiro[4.5]decane-8-carbonyl)-2-[5-(5-chloro-thiophen-2-yl)-isoxazol-3-ylmethyl]-2H-pyrazole-3-carboxylic acid (1-isopropyl-piperidin-4-yl)-amide] | 6.03
CC(C)N1CCC(NC(=O)c2cc(C(=O)N3CCC[C@H]3C(=O)O)nn2Cc2cc(-c3ccc(Cl)s3)on2)CC1 [Example 65, 1-[1-[5-(5-Chloro-thiophen-2-yl)-isoxazol-3-ylmethyl]-5-(1-isopropyl-piperidin-4-ylcarbamoyl)-1H-pyrazole-3-carbonyl]-2S-pyrrolidine-2-carboxylic acid] | 6.85
CC(C)N1CCC(NC(=O)c2cc(C(=O)N3CCC(F)(F)CC3)nn2Cc2cc(-c3ccc(Cl)s3)on2)CC1 [Example 71, 2-[5-(5-Chloro-thiophen-2-yl)-isoxazol-3-ylmethyl]-5-(4,4-difluoro-piperidine-1-carbonyl)-2H-pyrazole-3-carboxylic acid (1-isopropyl-piperidin-4-yl)-amide] | 6.74
CC(C)N1CCC(NC(=O)c2cc(-c3cccs3)nn2Cc2cc3ccc(Cl)cc3s2)CC1 [Example 15, 2-(6-Chloro-benzo[b]thiophen-2-ylmethyl)-5-thiophen-2-yl-2H-pyrazole-3-carboxylic acid (1-isopropyl-piperidin-4-yl)-amide] | 7.89
CC(C)N1CCC(NC(=O)c2cc(C(=O)NC#N)nn2Cc2cc(-c3ccc(Cl)s3)on2)CC1 [Example 49, 2-[5-(5-Chloro-thiophen-2-yl)-isoxazol-3-ylmethyl]-5-(cyanamide-1-carbonyl)-2H-pyrazole-3-carboxylic acid (1-isopropyl-piperidin-4-yl)-amide] | 7.40
CC(C)N1CCC(NC(=O)c2cc(C(=O)OCCN3CCNC3=O)nn2Cc2cc(-c3ccc(Cl)s3)on2)CC1 [Example 32, 1-[5-(5-Chloro-thiophen-2-yl)-isoxazol-3-ylmethyl]-5-(1-isopropyl-piperidin-4-ylcarbamoyl)-1H-pyrazole-3-carboxylic acid 2-(2-oxo-imidazolidin-1-yl)-ethyl ester] | 7.35
CC(C)N1CCC(CNC(=O)c2cc(-c3cccs3)nn2Cc2cc(-c3ccc(Cl)s3)on2)CC1 [Example 17, 2-[5-(5-Chloro-thiophen-2-yl)-isoxazol-3-ylmethyl]-5-thiophen-2-yl-2H-pyrazole-3-carboxylic acid (1-isopropyl-piperidin-4-ylmethyl)-amide] | 6.81
CC(C)N1CCC(NC(=O)c2cc(C(=O)N3CCC(O)C3)nn2Cc2cc(-c3ccc(Cl)s3)on2)CC1 (stereo not shown) [Example 36, 2-[5-(5-Chloro-thiophen-2-yl)-isoxazol-3-ylmethyl]-5-(3-hydroxy-pyrrolidine-1-carbonyl)-2H-pyrazole-3-carboxylic acid (1-isopropyl-piperidin-4-yl)-amide] | 6.91
O=C(NC1CCN(c2ccncc2)CC1)c1cc(-c2cccs2)nn1Cc1cc(-c2ccc(Cl)s2)on1 [Example 18, 2-[5-(5-Chloro-thiophen-2-yl)-isoxazol-3-ylmethyl]-5-thiophen-2-yl-2H-pyrazole-3-carboxylic acid (3,4,5,6-tetrahydro-2H-[1,4′]bipyridinyl-4-yl)-amide] | 6.69
COCCN(CCOC)C(=O)c1cc(C(=O)NC2CCN(C(C)C)CC2)n(Cc2cc(-c3ccc(Cl)s3)on2)n1 [Example 31, 1-[5-(5-Chloro-thiophen-2-yl)-isoxazol-3-ylmethyl]-1H-pyrazole-3,5-dicarboxylic acid 3-[bis-(2-methoxy-ethyl)-amide] 5-[(1-isopropyl-piperidin-4-yl)-amide]] | 6.74
CCOC(=O)C1CCN(C(=O)c2cc(C(=O)NC3CCN(C(C)C)CC3)n(Cc3cc(-c4ccc(Cl)s4)on3)n2)CC1 [Example 69, 1-[1-[5-(5-Chloro-thiophen-2-yl)-isoxazol-3-ylmethyl]-5-(1-isopropyl-piperidin-4-ylcarbamoyl)-1H-pyrazole-3-carbonyl]-piperidine-4-carboxylic acid ethyl ester] | 6.75
CC(C)N1CCC(NC(=O)c2cc(C(=O)N3CCCC3C(F)(F)F)nn2Cc2cc(-c3ccc(Cl)s3)on2)CC1 (stereo not shown) [Example 43, 2-[5-(5-Chloro-thiophen-2-yl)-isoxazol-3-ylmethyl]-5-(2-trifluoromethyl-pyrrolidine-1-carbonyl)-2H-pyrazole-3-carboxylic acid (1-isopropyl-piperidin-4-yl)-amide] | 7.14
CC(C)N1CCC(NC(=O)c2cc(C(=O)N3CCC(CO)CC3)nn2Cc2cc(-c3ccc(Cl)s3)on2)CC1 [Example 37, 2-[5-(5-Chloro-thiophen-2-yl)-isoxazol-3-ylmethyl]-5-(4-hydroxymethyl-piperidine-1-carbonyl)-2H-pyrazole-3-carboxylic acid (1-isopropyl-piperidin-4-yl)-amide] | 6.71
CC(C)OC(=O)CNC(=O)c1cc(C(=O)NC2CCN(C(C)C)CC2)n(CC(=O)Nc2ccc(Cl)cn2)n1 [Example 92, {[1-[(5-Chloro-pyridin-2-ylcarbamoyl)-methyl]-5-(1-isopropyl-piperidin-4-ylcarbamoyl)-1H-pyrazole-3-carbonyl]-amino}-acetic acid isopropyl ester] | 7.39
